Read-outs that look alike come from different tables or passages of the source.
Columns and labels:
[1] = in vitro
Experimental: (§1) The reaction mixture, minus cofactors, was prepared as described below. The test article was added into the reaction mixture at a final concentration of 1 μM. […] An aliquot of the reaction mixture (without cofactor cocktail) was equilibrated in a shaking water bath at 37° C. for 3 minutes. The reaction was initiated by the addition of cofactor cocktail, and the mixture was incubated in a shaking water bath at 37° C. Aliquots (100 μL) were withdrawn at 0, 10, 20, 30, and 60 minutes. All samples were immediately combined with 400 uL of icecold 50/50 acetonitrile/H2O containing 0.1% formic acid and internal standard to terminate the reaction. The samples were then mixed and centrifuged to precipitate proteins. Calibration standards were prepared in matched matrix. All samples and standards were assayed by LC-MS/MS using electrospray ionization for both the dosed prodrug I-9 and the expected drug (PEA). Analytical conditions are outlined in Appendix 4-1. The test article concentration at each time point was compared to the test article concentration at time 0 to determine the percent remaining at each time point. Half-lives were calculated using GraphPad software, fitting to single-phase exponential decay equation.
(§2) Reaction mixture, minus cofactors, was prepared as described below. Test article was added into the reaction mixture at a final concentration of 1 μM. […] An aliquot of the reaction mixture (without cofactor cocktail) was equilibrated in a shaking water bath at 37° C. for 3 minutes. The reaction was initiated by the addition of cofactor cocktail, and the mixture was incubated in a shaking water bath at 37° C. Aliquots (100 μL) were withdrawn at 0, 10, 20, 30, and 60 minutes. Test article samples were immediately combined with 300 μL of ice-cold acetonitrile containing 1% formic acid. Control samples were immediately combined with 400 μL of ice-cold 50/50 acetonitrile (ACN)/dH2O containing 0.1% formic acid and internal standard to terminate the reaction. Samples were then mixed and centrifuged to precipitate proteins. Calibration standards were prepared in matched matrix. Samples and standards were assayed by LC-MS/MS using electrospray ionization for both the dosed prodrug and the expected drug (PEA). Analytical conditions are outlined in Appendix 8-1. Test article concentration at each time point was compared to test article concentration at time 0 to determine the percent remaining at each time point. Halflives were calculated using GraphPad software, fitting to a single-phase exponential decay equation.
as §2, with “for 5” for “for 3”, “minutes. Reaction” for “minutes. The reaction”, “and” for “and the”, “both” for “both the”, “Appendix 10-1.” for “Appendix 8-1.”
(§3) Reaction mixture, minus cofactors, was prepared as described below.

[2] = in vitro; remark: listed apart in the source
Experimental: as §1, §2
as §2, with “for 5” for “for 3”, “minutes. Reaction” for “minutes. The reaction”, “and” for “and the”, “both” for “both the”, “Appendix 10-1.” for “Appendix 8-1.”
as §3

[3] = in vitro; details: s9
Experimental: Reaction mixture, minus cofactors, was prepared as described below. Test article was added into the reaction mixture at a final concentration of 1 μM. […] An aliquot of the reaction mixture (without cofactor cocktail) was equilibrated in a shaking water bath at 37° C. for 3 minutes. The reaction was initiated by the addition of cofactor cocktail (see below), and the mixture was then incubated in a shaking water bath at 37° C. Aliquots (100 μL) were withdrawn 0, 10, 20, 30 and 60 minutes. Test article samples were immediately combined with 300 μL of ice-cold acetonitrile containing 1% formic acid. Control samples were immediately combined with 400 μL of ice-cold 50/50 acetonitrile (ACN)/dH2O containing 0.1% formic acid and internal standard to terminate the reaction. Samples were then mixed and centrifuged to precipitate proteins. Calibration standards were prepared in matched matrix. Samples and standards were assayed by LC-MS/MS using electrospray ionization for both the dosed prodrug and the expected drug (PEA). Analytical conditions are outlined in Appendix 8-1. Test article concentration at each time point was compared to the test article concentration at time 0 to determine the percent remaining at each time point. Half-lives were calculated using GraphPad software, fitting to a single-phase exponential decay equation.
Reaction mixture, minus cofactors, was prepared as described below. Test article was added into the reaction mixture at a final concentration of 1 μM. […] An aliquot of the reaction mixture (without cofactor cocktail) was equilibrated in a shaking water bath at 37° C. for 5 minutes. Reaction was initiated by the addition of cofactor cocktail (see below), and mixture was then incubated in a shaking water bath at 37° C. Aliquots (100 μL) were withdrawn at 0, 10, 20, 30, and 60 minutes. Test article samples were immediately combined with 300 μL of ice-cold acetonitrile containing 1% formic acid. Control samples were immediately combined with 400 μL of ice-cold 50/50 acetonitrile (ACN)/dH2O containing 0.1% formic acid and internal standard to terminate the reaction. Samples were then mixed and centrifuged to precipitate proteins. Calibration standards were prepared in matched matrix. Samples and standards were assayed by LC-MS/MS using electrospray ionization for both dosed prodrug and expected drug (PEA). Analytical conditions are outlined in Appendix 10-1. Test article concentration at each time point was compared to test article concentration at time 0 to determine the percent remaining at each time point. Half-lives were calculated using GraphPad software, fitting to a single-phase exponential decay equation.
The reaction mixture, minus cofactors, was prepared as described below. Test article was added into the reaction mixture at a final concentration of 1 μM. […] An aliquot of the reaction mixture (without cofactor cocktail) was equilibrated in a shaking water bath at 37° C. for 3 minutes. Reaction was initiated by the addition of cofactor cocktail (see below), and the mixture was then incubated in a shaking water bath at 37° C. Aliquots (100 μL) were withdrawn at 0, 10, 20, 30, and 60 minutes. Test article samples were immediately combined with 300 μL of ice-cold acetonitrile containing 1% formic acid. Control samples were immediately combined with 400 μL of ice-cold 50/50 acetonitrile (ACN)/dH2O containing 0.1% formic acid and internal standard to terminate the reaction. Samples were then mixed and centrifuged to precipitate proteins. Calibration standards were prepared in matched matrix. Samples and standards were assayed by LC-MS/MS using electrospray ionization for both dosed prodrug and expected drug (PEA). Analytical conditions are outlined in Appendix 13-1. Test article concentration at each time point was compared to the test article concentration at time 0 to determine the percent remaining at each time point.

[4] = in vitro; remark: listed apart in the source
Experimental: as §2
as §2, with “for 5” for “for 3”, “minutes. Reaction” for “minutes. The reaction”, “and” for “and the”, “both” for “both the”, “Appendix 10-1.” for “Appendix 8-1.”
(§4) Reaction mixture, minus cofactors, was prepared as described below. Test article was added into the reaction mixture at a final concentration of 1 μM. […] An aliquot of the reaction mixture (without cofactor cocktail) was equilibrated in a shaking water bath at 37° C. for 3 minutes. Reaction was initiated by the addition of cofactor cocktail, and the mixture was incubated in a shaking water bath at 37° C. Aliquots (100 μL) were withdrawn at 0, 10, 20, 30, and 60 minutes. Test article samples were immediately combined with 300 μL of ice-cold acetonitrile containing 1% formic acid. Control samples were immediately combined with 400 μL of ice-cold 50/50 acetonitrile (ACN)/dH2O containing 0.1% formic acid and internal standard to terminate the reaction. Samples were then mixed and centrifuged to precipitate proteins. Calibration standards were prepared in matched matrix. Samples and standards were assayed by LC-MS/MS using electrospray ionization for both dosed prodrug and expected drug (PEA). Analytical conditions are outlined in Appendix 13-1. Test article concentration at each time point was compared to test article concentration at time 0 to determine the percent remaining at each time point. Halflives were calculated using GraphPad software, fitting to a single-phase exponential decay equation.

[5] = in vitro; remark: listed apart in the source
Experimental: as §2
as §4, with “for 5” for “for 3”, “and” for “and the”, “Appendix 10-1.” for “Appendix 13-1.”
as §4

[6] = Summary of half life data (Table A), matrix not stated; type: in vitro ADME
[7] = male, Sprague-Dawley, rat, in vivo, po
Experimental: PEA was also dosed intravenously at 1 mg/kg. Blood samples were collected up to 8 hours post-dose, and PEA and PEA-prodrug plasma concentrations were determined with a qualified LC-MS/MS method. Pharmacokinetic analysis was conducted by a non-compartmental model using Phoenix WinNonlin v.6.4 software.
The IV dosing solution was prepared fresh on the day of dosing at 0.5 mg/mL in a vehicle comprised of 10% solutol HS15, 10% n-methylpyrrolidone (NMP), 10% polyethylene glycol 400 (PEG400), and 70% water. For PO dosing, torpac capsules were loaded with an appropriate amount of PEA, PEA-prodrug, or normast powder. […] The prodrug dose in group 5 was the maximum amount of powder that would fit into a single capsule.
The pharmacokinetics of PEA and the PEA-prodrug were evaluated in fasted male Sprague-Dawley rats. Rats were housed one per cage. Each rat was fitted with a jugular vein cannula (JVC) for blood collection. Rats intended for IV dosing were fitted with an additional JVC for dosing. Each study group was dosing in triplicate. Rats were fasted for a minimum of twelve hours prior to dosing. Food was returned at four hours post dosing. Animals had free access to water throughout the study.
Blood samples (˜300 μL) were collected from the rats via a JVC and placed into chilled polypropylene tubes containing sodium heparin as an anticoagulant, and 30 μL of 0.5 M citric acid. Samples were maintained chilled throughout processing. Blood samples were centrifuged at 4° C. and 3,000 g for 5 minutes. Plasma (˜150 μL) was then transferred to a chilled, labeled polypropylene tube containing 15 μL of 10% formic acid, placed on dry ice, and stored in a freezer maintained at −60° C. to −80° C.
Pharmacokinetic parameters were determined with Phoenix WinNonlin (v6.4) software using a non-compartmental model. Maximum plasma concentrations (C0) after IV dosing were estimated by extrapolation of the first two time points back to t=0. […] Area under the time concentration curve (AUC) was calculated using the linear trapezoidal rule with calculation to the last quantifiable data point, and with extrapolation to infinity if applicable. […] Mean residence time, MRT, was calculated by dividing the area under the moment curve (AUMC) by the AUC. Clearance (CL) was calculated from dose/AUC. Steady-state volume of distribution (Vss) was calculated from CL*MRT (mean residence time). Bioavailability was determined by dividing the individual PO dose normalized AUClast values by the average IV AUClast value. Any samples below the limit of quantitation were treated as zero for pharmacokinetic data analysis.
Measured concentrations of PEA in plasma samples were corrected by subtracting the concentration of PEA measured in the pre-dose samples. […] Any corrected values that were negative are reported as not determined (ND).

[8] = Simulated intestinal fluid stability, SIF containing pancreatin; type: in vitro ADME; details: for % Remaining of Initial (n = 1): 1 μM; for Measured Concentration of Drug: test article dosed at 1 μM
Experimental: (§5) Studies were carried out in simulated intestinal fluid containing pancreatin. Simulated intestinal fluid was prepared by dissolving 6.8 g of monobasic potassium phosphate in 1.0 L of water. Pancreatin was then added to the solution and the pH was adjusted to 6.8. A DMSO stock was first prepared for the test articles. Aliquots of the DMSO solution were dosed into 300 μL of matrix, which had been pre-warmed to 37° C., at a final test article concentration of 1 μM. An individual tube was dosed for each time point. At each time point (0, 15, 30, 60, and 120 minutes), 900 μL of ice-cold acetonitrile containing 1.0% formic acid was added to an individual tube. Starting time for each tube was staggered such that all timepoints would finish at the same time. After the conclusion of the experiment, tubes were mixed and then centrifuged at 3,000 rpm for 10 minutes. Calibration standards were prepared in matched matrix. […] Analytical conditions are outlined in Appendix 11-1.
as §5, with “prepared for test articles.” for “prepared for the test articles.”, “Aliquots of DMSO solution” for “Aliquots of the DMSO solution”, “individual tube. The starting time for” for “individual tube. Starting time for”, “that all time points would finish” for “that all timepoints would finish”, “in Appendix 14-1.” for “in Appendix 11-1.”

[9] = tested on: patients with distal ulcerative colitis; details: cited from earlier work

O=c1ccc2ccc(O)cc2o1 [Compound 7-HC, 7-hydroxycoumarin, reference compound] gave a microsomal CLint ([1]; both, human, s9, Clint, control compound) of 943 µL/min/mg, a half-life ([1]; both, human, s9, Half-life (min)) of 13 min and a half-life ([1]; both, human, s9, Half-life, control compound) of 7.3 min. It also gave a microsomal CLint ([2]; male, Sprague-Dawley, rat, s9, Clint, control compound) of 20.1 µL/min/mg and a half-life ([2]; male, Sprague-Dawley, rat, s9, Half-life, control compound) of 34 min.

Work on O=c1ccc2ccc(O)cc2o1 [Compound 7-hydroxycourmann] yielded a CLint ([3]; dog) of 0.512 ml/min/mg protein, a Half-life ([3]; dog) of 1.4 min and a CLint ([3]; human) of 0.0472 ml/min/mg protein. The Half-life ([3]; human) was 15 min, the CLint ([3]; mouse) was 0.313 ml/min/mg protein and the Half-life ([3]; mouse) was 2.2 min. For the same molecule, the CLint ([3]; rat) was 0.362 ml/min/mg protein and the Half-life ([3]; rat) was 1.9 min.

With O=c1ccc2ccc(O)cc2o1 [Compound 7-hydroxycourmarin] the CLin [4] was 0.138 ml/min/mg protein, the CLint ([4]; mouse, s9) was 0.160 ml/min/mg protein and the CLin [1] was 0.0522 ml/min/mg protein. It also gave a CLint ([1]; human, s9) of 0.0698 ml/min/mg protein, a CLin [5] of 0.0770 ml/min/mg protein and a CLint ([5]; dog, s9) of 0.0799 ml/min/mg protein. It also gave a CLin [2] of 0.0242 ml/min/mg protein and a CLint ([2]; rat, s9) of 0.0320 ml/min/mg protein.

For CCCCCCCCCCCCCCCC(=O)NCCOC(=O)CCC(=O)OC[C@H](COC(=O)CCC)OC(=O)CCC [Compound I-14], the half-life [6] was 7.5 min, the Bioavailability [7] was 4.39% and the “Dose-normalized AUC∞ (PEA)” value [7] was 4.81 kg·ng·h/mL/mg. The “% Remaining of Initial (n = 1)” value ([8]; 0 min) was 100%, the “Measured Concentration of Drug” value ([8]; 0 min) was 0.19 µM and the “% Remaining of Initial (n = 1)” value ([8]; 15 min) was 25%. The “Measured Concentration of Drug” value ([8]; 15 min) was 0.047 µM, the “% Remaining of Initial (n = 1)” value ([8]; 30 min) was less than 2.2% and the “Measured Concentration of Drug” value ([8]; 30 min) was 0 µM. The “% Remaining of Initial (n = 1)” value ([8]; 60 min) was less than 2.2%, the “Measured Concentration of Drug” value ([8]; 60 min) was 0 µM and the “% Remaining of Initial (n = 1)” value ([8]; 120 min) was less than 2.2%. The “Measured Concentration of Drug” value ([8]; 120 min) was 0 µM and the half-life at 1 μM ([8]; simulated intestinal fluid containing pancreatin, pH 6.8, 1 μM) was 7.6 min.

With CCCCCCCCCCCCCCCC(=O)NCCOC(=O)CCC(=O)OC[C@@H](COC(=O)CCC)OC(=O)CCC [Compound I-15] the half-life [6] was less than 1 min, the Bioavailability [7] was 3.42% and the “% Remaining of Initial (n = 1)” value ([8]; 0 min) was 100%. The “Measured Concentration of Drug” value ([8]; 0 min) was 0.18 µM, the “% Remaining of Initial (n = 1)” value ([8]; 15 min) was less than 2.2% and the “Measured Concentration of Drug” value ([8]; 15 min) was 0 µM. For the same molecule, the “% Remaining of Initial (n = 1)” value ([8]; 30 min) was less than 2.2%, the “Measured Concentration of Drug” value ([8]; 30 min) was 0 µM and the “% Remaining of Initial (n = 1)” value ([8]; 60 min) was less than 2.2%. The “Measured Concentration of Drug” value ([8]; 60 min) was 0 µM, the “% Remaining of Initial (n = 1)” value ([8]; 120 min) was less than 2.2% and the “Measured Concentration of Drug” value ([8]; 120 min) was 0 µM.

In the case of CCCC(=O)[O-].[Na+] [sodium butyrate], the “discharge of blood ceased” value ([9]; after butyrate irrigation) is listed as 9 of 10, the overall crypt proliferation ([9]; after butyrate irrigation) is listed as “unchanged” and the “upper crypt-labeling index after butyrate irrigation” value ([9]; before 0.086±0.019) is listed as 0.032±0.003. For the same molecule, the “histological degree of inflammation after butyrate irrigation” value ([9]; before 2.4±0.3) was 1.5±0.3, the “endoscopic score after butyrate irrigation” value ([9]; before 6.5±0.4) was 3.8±0.8 and the “stool frequency after butyrate irrigation” value ([9]; sodium butyrate 100 mmol/L enemas 2 weeks, 10 patients, before 4.7±0.5) was 2.1±0.4 n/day.

Source: patent US11547681B2, “N-acylethanolamide derivatives and uses thereof” (ELIEM THERAPEUTICS, INC., priority 2016, dated 2023)
